# Assay results taken from article PMC7010361 (ACS chemical biology, 2019).
# Molecular target: BRD4 in HeLa cells (Homo sapiens, UniProt O60885)
# Test: Western blot analysis of BRD4 degradation
# Assay type: cell-based
# Settings: HeLa cells treated 24 h with varying concentrations; GAPDH loading control
smiles,measurement,value
Cc1ncsc1-c1ccc(CNC(=O)[C@@H]2C[C@@H](O)CN2C(=O)[C@@H](NC(=O)COCCOCCOCCNC(=O)C[C@@H]2N=C(c3ccc(Cl)cc3)c3c(sc(C)c3C)-n3c(C)nnc32)C(C)(C)C)cc1 [MZ1],BRD4 degradation (western blot),dose dependent degradation of BRD4
